Measurements reported in publication PMC3416781, “Functional Characterizations of Chemosensory Proteins of the Alfalfa Plant Bug Adelphocoris lineolatus Indicate Their Involvement in Host Recognition” (PLoS ONE, 2012).
Where two headings read alike, the source gives them in different places.

Columns and labels:
AlinCSP1 = AlinCSP1 (Adelphocoris lineolatus, UniProt J7EJ71); experiment: biochemical; assay type: binding
Procedure: (§1) Fluorescence binding assays were performed on an F-380 fluorescence spectrophotometer (Tianjin, China) in a 1 cm light path quartz cuvette. The slit width used for excitation and emission was both 10 nm. The fluorescent probe N-phenyl-1-naphthylamine (1-NPN) was dissolved in methanol with a 1 mM stock solution. 1-NPN was excited at 337 nm and emission spectra were recorded between 390 nm and 530 nm.
(§2) All values reported were obtained from three independent measurements.
(§3) For determining binding constants, the intensity values corresponding to the maximum fluorescence emission were plotted against free ligand concentration. Bound ligand was evaluated from the values of fluorescence intensity assuming the protein was 100% active, with a stoichiometry of 1∶1 protein:ligand at saturation. The curves were linearized using Scatchard Plot.

AlinCSP2 = AlinCSP2 (Adelphocoris lineolatus, UniProt E7BLG5); experiment: biochemical; assay type: binding
AlinCSP2, sequence (E7BLG5 entry or part of it): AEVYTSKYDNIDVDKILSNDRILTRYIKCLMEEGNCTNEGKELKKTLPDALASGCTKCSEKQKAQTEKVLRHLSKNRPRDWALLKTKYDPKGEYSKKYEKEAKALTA
Procedure: as §1, §2, §3

AlinCSP3 = AlinCSP3 (Adelphocoris lineolatus, UniProt E7BLG4); experiment: biochemical; assay type: binding
AlinCSP3, sequence (E7BLG4 entry or part of it): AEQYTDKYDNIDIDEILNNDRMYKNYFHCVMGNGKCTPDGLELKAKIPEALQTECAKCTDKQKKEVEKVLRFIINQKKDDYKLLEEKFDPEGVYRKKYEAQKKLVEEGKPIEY
Procedure: as §1, §2, §3

A. lineolatus antennae = experiment: Electroantennogram (EAG) recordings; design: species or system Adelphocoris lineolatus; conditions: normalized to 2-octanone; for EAG response, male versus female antennae: Student t-test between sexes; for EAG response in words: male and female adult antennae, 10% (v/v) in paraffin oil, good ligand = more than 50% of 2-octanone response
Excerpt: Electrophysiological (EAG) recordings from each sex of adult individuals were made using Ag-AgCl glass pipette electrodes filled with 3 M KCl solution [69], [70]. The insects were anaesthetized by chilling, the antenna was amputated at the base and the tip of the antenna was cut off. The excised antenna was mounted between the electrodes by one teardrop of Spectra R360 electrically conductive gel (Syntech, Netherlands). The base of the antenna was connected to the reference electrode, while the terminal of tip-cut off antenna was connected to the recording electrode. An air stimulus controller CS-55 (Syntech, Netherlands) was used for air and chemical stimulants delivery with a constant flow of 10 ml/second flowed continuously over the antenna through the open end of the glass tube, which was positioned 1 cm from the antenna.
Twenty microliters of tested chemicals (100 µl/ml, 10% (v/v) dilution in paraffin oil except the hexadecanoic acid dissolved in hexane with 100 µg/ml) were applied to filter paper strips (1.5 cm×4 cm, Whatman No.1), and the solvent was allowed to evaporate for 30 sec before the paper strip was inserted into the glass Pasteur pipette cartridge (10 cm long, Fisher Scientific, Pittsburgh, Pennsylvania, USA). The chemicals were tested randomly, stimulus duration time was 0.5 second and an interval of at least 30 seconds was taken between stimulations for antennal recovery. Chemical odorants used for the EAG recordings are the same as used in the binding assays. […] The paraffin oil (Fluka, Buchs, Switzerland) was used to dissolve the chemicals and treated as control compound [71]. Each chemical was tested against six individual male and female antennae, and each antenna was tested three times. The signals were passed through a high impedance amplifier (CS-05 model, Syntech, the Netherlands), EAG responses were initially measured in millivolts (peak height of depolarization) and then converted to normalized responses by the Syntech EAG 2000 program (Syntech, the Netherlands). Response to the solvent control was subtracted from all normalized response and the normalized EAG responses were expressed as a percentage to the reference compound response. All results are presented as mean (±SE) normalized EAG responses. EAG responses between male and female individuals were compared with the Student t-test using SAS software.

[1] = u.d. = KD not calculated because IC50>50 µM, read-out: KD (µM) AlinCSP1, given as u.d.
[2] = u.d. = KD not calculated because IC50>50 µM, read-out: KD (µM) AlinCSP2, given as u.d.
[3] = 1-NPN and protein at 2 µM, 50 mM Tris-HCl pH 7.4, KD calculated from IC50, mean of three measurements, read-out: KD (µM) AlinCSP3
[4] = 1-NPN and protein at 2 µM, 50 mM Tris-HCl pH 7.4, KD calculated from IC50, mean of three measurements, read-out: KD (µM) AlinCSP2
[5] = u.d. = KD not calculated because IC50>50 µM, read-out: KD (µM) AlinCSP3, given as u.d.
[6] = KD (µM) AlinCSP1, 1-NPN and protein at 2 µM, 50 mM Tris-HCl pH 7.4, KD calculated from IC50, mean of three measurements
[7] = KD (µM) AlinCSP2, 1-NPN and protein at 2 µM, 50 mM Tris-HCl pH 7.4, KD calculated from IC50, mean of three measurements
[8] = KD (µM) AlinCSP3, 1-NPN and protein at 2 µM, 50 mM Tris-HCl pH 7.4, KD calculated from IC50, mean of three measurements
[9] = 1-NPN and protein at 2 µM, 50 mM Tris-HCl pH 7.4, KD calculated from IC50, mean of three measurements, read-out: KD (µM) AlinCSP1
[10] = KD (µM) AlinCSP1, given as u.d., u.d. = KD not calculated because IC50>50 µM
[11] = KD (µM) AlinCSP3, given as u.d., u.d. = KD not calculated because IC50>50 µM

AlinCSP1, sequence (J7EJ71 entry or part of it): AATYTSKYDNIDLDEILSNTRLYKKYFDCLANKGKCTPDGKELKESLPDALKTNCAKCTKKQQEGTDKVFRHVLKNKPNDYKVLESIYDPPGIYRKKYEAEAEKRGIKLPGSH

Row | Compound | Kd (AlinCSP1; [1]) [µM] | Kd (AlinCSP2; [2]) [µM] | Kd (AlinCSP2; [4]) [µM] | Kd (AlinCSP3; [5]) [µM] | Kd (AlinCSP1; [9]) [µM] | further results
1 | CC(C)=CCCC(C)CCO (stereo not drawn) [(-)-β-Citronellol] | > 50 | > 50 | – | – | – | Kd (AlinCSP3; [3]): 43.5 ± 0.99 µM
2 | CCCCCCCCCCCCCCO [Tetradecanol] | > 50 | – | 35.8 ± 3.01 | > 50 | – | –
3 | CC1(C)[C@@H]2CC[C@@]1(C)[C@H](O)C2 (racemic) [Isoborneol] | – | – | – | – | – | Kd (AlinCSP1; [6]): 24.2 ± 1.42 µM; Kd (AlinCSP2; [7]): 21.1 ± 2.04 µM; Kd (AlinCSP3; [8]): 28.6 ± 1.68 µM
4 | CCCCC(CC)CO (stereo not drawn) [2-Ethyl-1-hexanol] | > 50 | > 50 | – | > 50 | – | –
5 | CCCCCCCC [Octane] | – | – | 44.4 ± 1.36 | – | 42.1 ± 1.42 | Kd (AlinCSP3; [3]): 45.4 ± 1.54 µM; EAG response, male versus female antennae (A. lineolatus antennae): significantly higher EAG responses from male antennae than from female antennae
6 | CCCCCCOC(=O)CCC [Hexyl butyrate] | – | > 50 | – | > 50 | 46.8 ± 1.85 | –
7 | COC(=O)Cc1ccccc1 [Methyl phenylacetate] | – | – | – | – | – | Kd (AlinCSP1; [6]): 32.1 ± 1.85 µM; Kd (AlinCSP2; [7]): 30.6 ± 1.92 µM; Kd (AlinCSP3; [8]): 22.2 ± 0.87 µM
8 | CCCCC/C=C\CCO [(Z)-3-Nonen-1-ol] | – | – | 26.4 ± 1.87 | – | 21.5 ± 1.17 | Kd (AlinCSP3; [3]): 25.5 ± 1.67 µM
9 | CCCCCCOC(=O)CCCCC [Hexyl hexanoate] | – | > 50 | – | – | 44.7 ± 2.38 | Kd (AlinCSP3; [3]): 43.8 ± 1.98 µM
10 | (+)-α-Pinene | – | – | 30.6 ± 0.71 | – | 31.7 ± 0.98 | Kd (AlinCSP3; [3]): 27.2 ± 1.02 µM
11 | C=CC(C)(O)CCC=C(C)C (stereo not drawn) [Linalool] | – | – | – | – | – | Kd (AlinCSP1; [10]): > 50 µM; Kd (AlinCSP2; [7]): 46.2 ± 2.35 µM; Kd (AlinCSP3; [11]): > 50 µM
12 | CCCCCCCCC [Nonane] | > 50 | > 50 | – | > 50 | – | –
13 | Cc1ccc(C=O)cc1C [3,4-Dimethyl-benzaldehe, 3,4-Dimethyl-benzaldehyde] | > 50 | > 50 | – | > 50 | – | EAG response, male versus female antennae (A. lineolatus antennae): significantly higher EAG responses from female antennae than from male antennae
14 | CCC/C=C/C=O [(E)-2-Hexen-1-al] | – | – | – | – | – | Kd (AlinCSP1; [6]): 11.3 ± 1.07 µM; Kd (AlinCSP2; [7]): 13.2 ± 2.05 µM; Kd (AlinCSP3; [8]): 14.5 ± 2.59 µM; EAG response in words (A. lineolatus antennae): elicited significant antennal responses from both male and female
15 | CC(C)=CCC/C(C)=C/C=O [Citral] | – | – | – | – | – | Kd (AlinCSP1; [10]): > 50 µM; Kd (AlinCSP2; KD (µM) AlinCSP2, given as u.d., u.d. = KD not calculated because IC50>50 µM): > 50 µM; Kd (AlinCSP3; [11]): > 50 µM
16 | CCCCCCCC(C)=O [2-Nonanone] | > 50 | – | 42.4 ± 2.21 | > 50 | – | –
17 | CC/C=C\CCO [(Z)-3-Hexen-1-ol] | – | – | – | – | – | Kd (AlinCSP1; [6]): 12.5 ± 2.32 µM; Kd (AlinCSP2; [7]): 15.1 ± 1.79 µM; Kd (AlinCSP3; [8]): 16.3 ± 1.98 µM; EAG response in words (A. lineolatus antennae): elicited significant antennal responses from both male and female
18 | CCCCCCCCC=O [Nonanal] | – | > 50 | – | > 50 | 43.6 ± 1.11 | –
19 | CCCCCCCCCCCC [Dodecane] | > 50 | > 50 | – | > 50 | – | –
20 | CCCCC=O [Valeraldehyde] | – | – | 13.4 ± 2.41 | – | 17.6 ± 2.54 | Kd (AlinCSP3; [3]): 11.2 ± 1.52 µM; EAG response in words (A. lineolatus antennae): elicited significant antennal responses from both male and female
21 | CCCCCCC(C)O (stereo not drawn) [2-Octanol] | > 50 | – | 39.5 ± 2.11 | > 50 | – | –
22 | O=Cc1ccccc1 [Benzaldehyde] | – | – | – | – | – | Kd (AlinCSP1; [6]): 27.5 ± 1.96 µM; Kd (AlinCSP2; [7]): 28 ± 2.11 µM; Kd (AlinCSP3; [8]): 24 ± 1.76 µM
23 | C=CC(=C)CCC=C(C)C [Myrcene] | – | – | 13 ± 1.72 | – | 5.42 ± 0.93 | Kd (AlinCSP3; [3]): 10.7 ± 1.64 µM; EAG response in words (A. lineolatus antennae): failed to elicit high EAG response
24 | Cc1cccc(C(=O)O)c1C [2,3-Dimethylbenzoic acid] | > 50 | > 50 | – | > 50 | – | –
